# Assay results from patent US12059429B2, “Hornerin: a novel non-VEGF mediated angiogenic protein expressed in both human and mouse angiogenic endothelial cells and human pancreatic cancer cells” (University of Virginia Patent Foundation, priority 2018, dated 2024).
# Tests used:
# Assay type in all cases: in vivo, mouse
# L3.6pl xenografts = assay: Flow cytometry/FACS of tumor cell populations
# Protocol: (§1) Day 10 tumors were injected with either Scr siRNA or Hrnr siRNA and excised 20 hours later. The tumors were immediately washed in PBS (+Mg/+Ca), minced with scalpels, treated with Collagenase Type II (Worthington Biochemical Corporation, Lakewood, NJ, USA; (2.0 mg/mL) serum-free DMEM, 100 minutes at 37° C.), and filtered through a 40 μm cell strainer. The cell suspension (filtrate) was incubated with the following antibody/dye panel for FACS; anti-CD45 AF488 (1:100; Biolegend, San Diego, CA, USA, 103121, clone 30-F11), anti-CD31 AF647 (1:100; Biolegend, 102415, clone 390), LIVE/DEAD violet stain (1:200; Thermo Fisher). Flow cytometry analysis was completed on the Cyan ADP LX (Beckman Coulter). Compensation and data analysis was completed using FlowJo software (Ashland, OR, USA). FACS was completed in the UVA flow cytometry core on the Influx cell sorter (BD Biosciences, Franklin Lakes, NJ, USA).
# tumor vessels = assay: Tumor vessel parameters in L3.6pl tumor sections (CD34, ACTA2, RAVE analysis)
# Protocol: Following completion of the treatment schedule, the mice were killed, cardiac perfused, and the tumors were excised and fixed in formalin overnight. The tumors were paraffin embedded and cut into 5 (thin) or 50 μm (thick) sections. Tumor vessel parameters were evaluated in the following number of tumors for each treatment cohort: (Scr siRNA/ctrl., N=10; Hrnr siRNA/ctrl., N=10; Scr siRNA/AV-951, N=4; Hrnr siRNA/AV-951, N=4).
# Tumor sections were deparaffinized, rehydrated, heated in antigen retrieval solution (Vector), blocked for 30 minutes in blocking buffer, and incubated with anti-CD34 antibody (Abcam, ab8158, clone MEC14.7; 1:100) in blocking buffer overnight at 4° C. The sections were then incubated with goat anti-rat FITC secondary antibody (Abcam, ab6840; 1:100) in blocking buffer prior to mounting with Prolong Gold Antifade reagent (Invitrogen). Anti-actin, α-smooth muscle Cy3 antibody (Sigma, C6198, clone 1A4; 1:200) was added to the primary antibody solution if assaying for alpha-smooth muscle actin. To compare hornerin expression in vessels and tumor tissue treated with Hrnr siRNA and Scr siRNA, thin paraffin sections were deparaffinized and stained with anti-CD34 and anti-hornerin antibodies described. Images were collected using a Nikon TE 2000-E2 microscope (Nikon Instruments) equipped with a Melles Griot Argon Laser System (Melles Griot, Carlsbad, CA, USA) and a Nikon D-Eclipse C1 confocal attachment and analyzed by Measurement Tool in Image J. To measure the relative hornerin expression in tumor vessels, three vessel segments per image were isolated and their mean intensity and area were measured and recorded. A weighted mean intensity was calculated to correct for differences in selected area. To measure the relative hornerin expression in tumor tissue, the mean intensity from three square sections (75×75 pixel) of tumor tissue per image was measured and recorded.
# Vessel parameters were measured using RAVE software (Seaman et al., 2011). For detection of proliferation and apoptosis, the sections were incubated with the primary antibodies anti-Ki67 (Abcam, ab15580; 1:200) or anti-cleaved caspase 3 (Cell Signaling, 9661; 1:200), respectively, overnight at 4° C. followed by incubation with anti-rabbit AF594 (Abcam, 150080; 1:200).
# hornerin transcript = assay: qPCR of hornerin transcript in FACS-sorted CD31+CD45- tumor endothelial cells; conditions: vs Scr siRNA, 20 hours after injection
# Protocol: as §1, with “FACS was completed in the UVA flow cytometry core on the Influx cell sorter (BD Biosciences, Franklin Lakes, NJ, USA).” left out
# RNA was isolated from FACS-sorted CD31^+CD45^− cells according to the manufacturer's protocol (Qiagen mini-prep kit), and concentration and purity were determined using a NanoDrop Spectrophotometer (Thermo Fisher). Complimentary DNA (cDNA) was generated (Qiagen QuantiTect Reverse Transcription Kit) and subjected to pre-amplification (SsoAdvanced PreAmp Supermix, Bio-Rad). […] Melt curve analysis was performed on the hornerin and cyclophilin primer sets prior to data collection and normalized gene expression was determined by the delta delta Ct method.
# [1] = L3.6pl tumors, RAVE, vs Scr siRNA
# [2] = four-group combination experiment, vs control
substance,measurement,setting,value
5′-GCAUGGAUCUUGUUGCGGUTT-3′ [Hrnr siRNA],proportion of leukocytes (CD45+/CD31- cells),L3.6pl xenografts; FACS of tumor cell suspensions,not altered
same,proportion of endothelial cells (CD31+/CD45-),"L3.6pl xenografts; FACS, vs Scr siRNA",not different
same,increase in ACTA2 coverage of vessels,"tumor vessels; ACTA2-positive pixels / CD34-positive pixels, vs Scr siRNA",2.3 fold
same,number of vessels per field,"tumor vessels; CD34-positive vessels per 0.4 mm^2 field, vs Scr siRNA",not different
same,fractal dimension (tortuosity),tumor vessels; [1],reduced
same,vessel radius,tumor vessels; [1],overall reduction in vessel radius
same,vessel volume fraction (VVF),tumor vessels; [1],reduced
same,number of vessels per field,tumor vessels; [2],no change in the number of vessels per field
same,vessel radii,tumor vessels; [2],smaller radii
same,reduction in hornerin transcript,hornerin transcript,78%
